These results are taken from US11058700B2, “Macrocyclic lactones and uses thereof as modulators of purinergic receptors” (City of Hope, priority 2015, dated 2021).

SMILES strings stand for the structures.

Test [1] has as its target T1, P2X4/P2X7/Pannexin-1 channels (Mus musculus, UniProt Q9JJX6).
T1 construct: endogenous in cells; host or cells: 4T1.2 mouse breast cancer cells
T1 sequence (Q9JJX6 1-388): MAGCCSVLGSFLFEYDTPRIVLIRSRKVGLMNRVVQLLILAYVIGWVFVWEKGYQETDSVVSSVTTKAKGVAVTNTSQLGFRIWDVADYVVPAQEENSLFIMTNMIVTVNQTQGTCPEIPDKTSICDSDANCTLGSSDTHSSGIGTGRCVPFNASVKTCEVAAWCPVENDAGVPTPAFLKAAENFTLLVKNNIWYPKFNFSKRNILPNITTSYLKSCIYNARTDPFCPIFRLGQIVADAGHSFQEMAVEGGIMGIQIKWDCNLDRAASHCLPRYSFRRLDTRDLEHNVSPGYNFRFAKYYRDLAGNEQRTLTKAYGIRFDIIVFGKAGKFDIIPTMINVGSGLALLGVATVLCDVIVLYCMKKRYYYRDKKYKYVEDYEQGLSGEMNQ
The experiment in a line: Membrane permeabilization to YOPRO-1. The format is cell-based. As to conditions: 4T1.2 cells, Ivermectin 0.5-32 μM, ATP 0.3-3 mM, 30 min. On the procedure: FIGS. 3A-3G. Dual roles of ATP and purinergic signaling in Ivermectin's killing. FIG. 3A: Depletion of extracellular ATP with Apyrase (2500 μunits/ml) exacerbates killing of 4T1.2 cell by Ivermectin. FIG. 3B: Extracellular Ca^2− and ATP contain Ivermectin-induced cell swelling. 4T1.2 cells were treated with 32 μM Ivermectin for 4 h in the presence of 1 mM EDTA or 2500 μunits/ml Apyrase. FIG. 3C: Ivermectin (0.5-32 μM) and high concentrations of extracellular ATP (0.3-3 mM) synergistically open pannexin-1 channels and permeabilize the membrane on live cells (7AAD-positive dead cells were gated out). 4T1.2 cells were treated for 30 min as indicated in the presence of 7 AAD and 5 μM YOPRO-1. FIG. 3D: Analysis of supernatants from Ivermectin-treated murine and human TNBC cells showing rapid release of ATP followed by its transient depletion. Depletion of extracellular ATP with Apyrase (2500 μunits/ml) was used as a positive control. FIG. 3E: Analysis of membrane-proximal ATP levels using cancer cells engineered to express a membrane-bound Luciferase. […] FIG. 3G: The P2X7-specific inhibitor KN-62 (1-10 μM) blocks Ivermectin cytotoxicity (IVM 8-32 μM, 4-48 h treatments). Asterisk (*) indicates p<0.05 relative to untreated or Ivermectin alone controls, respectively.
FIGS. 10A-10L. Extracellular Dual roles of ATP and purinergic signaling in Ivermectin's killing. 4T1.2 cells were treated with Ivermectin for 4 h in the presence of different inhibitors at μM concentrations as indicated. FIG. 10A: The non-specific P2 purinergic receptor inhibitor Suramin (4-400 μM) exacerbates Ivermectin-induced cell death. FIG. 10B: Inhibition of extracellular ATPases with PSB 069 protects against Ivermectin cytotoxicity. FIG. 10C: Blockade of pannexin-1 channels with Panx-1 mimetic blocking peptide (Anaspec) and Probenecid at μM concentrations as indicated exacerbates killing. […] FIG. 10E: ATP plays a transiently protective role only in the mouse but not human breast cancer cells. 4T1.2 and MDA-MB-231 cells were treated with 32 μM Ivermectin for 4 h in the presence of ATP at mM concentrations as indicated. FIG. 10F: qPCR showing up-regulation of P2X4 and P2X7 receptors on several murine cancer cell lines, including 4T1.2 and DD-Her2/neu (breast), and B16 (melanoma). […] Expression of P2X and P2Y purinergic receptors, NOX family members, GABA, and Glycine receptors was analyzed using publicly available breast cancer cell lines datasets. Statistically significant (p<0.05) up-regulation and down-regulation in breast cancer versus normal cells is shown in red and blue, respectively. FIG. 10H: Correlation between sensitivity to Ivermectin and ATP across various human cancer cell lines. Cancer cells were treated for 24 h with 3 mM ATP or Ivermectin at 16 and 32 μM doses as indicated. […]

The test system of test [2] is 4T1.2 breast cancer cells. As to the kind of experiment: Cytosolic Cl- influx. The format is cell-based. Conditions: mouse 4T1.2 cells. On the procedure: Cytosolic Cl^− influx. Cancer cells in suspension were treated with various doses of Ivermectin in R10 medium for 1h at 37° C. and 5% CO2. Cells were then washed with PBS and loaded with 10 μM SPQ probe (Life Technologies, M440) in a hypotonic buffer containing 50% PBS and 50% double distilled water. Following brief 15 min incubation at room temperature in the dark cells were washed once with PBS and immediately analyzed by flow cytometry measuring fluorescence in the AF350 channel.

The subject of test [3] is murine and human TNBC cells. As to the kind of experiment: Reactive oxygen species. The format is cell-based, mouse. On the procedure: Reactive oxygen and nitrogen species. Cancer cells in suspension were washed with PBS and loaded with 50 μM H2DCFDA (Molecular Probes, Life Technologies, D399) or 5 μM DAF-2 (Cayman Chemical, Catalog #85165) for 30 min at room temperature in the dark. Cells were washed twice with PBS and treated with various doses of Ivermectin in R10 medium. Cells were incubated for 1h in 5 ml FACS tubes at 37° C. and 5% CO2, and immediately analyzed by flow cytometry. Generation of intracellular ROS and NO results in corresponding increases in the GFP fluorescence of the H2DCFDA and DAF-2 probes, respectively.

A further test concerns TNBC cells. As to the kind of experiment: Extracellular ATP release. The format is cell-based, mouse, human. On the procedure: FIGS. 3A-3G. Dual roles of ATP and purinergic signaling in Ivermectin's killing. FIG. 3A: Depletion of extracellular ATP with Apyrase (2500 μunits/ml) exacerbates killing of 4T1.2 cell by Ivermectin. FIG. 3B: Extracellular Ca^2− and ATP contain Ivermectin-induced cell swelling. 4T1.2 cells were treated with 32 μM Ivermectin for 4 h in the presence of 1 mM EDTA or 2500 μunits/ml Apyrase. FIG. 3C: Ivermectin (0.5-32 μM) and high concentrations of extracellular ATP (0.3-3 mM) synergistically open pannexin-1 channels and permeabilize the membrane on live cells (7AAD-positive dead cells were gated out). 4T1.2 cells were treated for 30 min as indicated in the presence of 7 AAD and 5 μM YOPRO-1. FIG. 3D: Analysis of supernatants from Ivermectin-treated murine and human TNBC cells showing rapid release of ATP followed by its transient depletion. Depletion of extracellular ATP with Apyrase (2500 μunits/ml) was used as a positive control. […]
Extracellular ATP release. […] The cancer cells engineered to stably express the membrane-bound Luciferase were treated with Ivermectin for 30 min-4 h and luminescence was measured in the presence of 2 μM Luciferin. ATP concentration in Ivermectin treated supernatants was measured using ATP determination kit (Life Technologies, A22066) following manufacturers' instructions.

With `CC[C@H](C)[C@H]1O[C@]2(CC[C@@H]1C)C[C@@H]1C[C@@H](C/C=C(\C)[C@@H](O[C@H]3C[C@H](OC)[C@@H](O[C@H]4C[C@H](OC)[C@@H](O)[C@H](C)O4)[C@H](C)O3)[C@@H](C)/C=C/C=C3\CO[C@@H]4[C@H](O)C(C)=C[C@@H](C(=O)O1)[C@]34O)O2` [Ivermectin], in test [1], the “opening of channels / permeabilization to YOPRO-1 with ATP” value is given as “synergized with ATP in opening P2X4/P2X7/Pannexin-1 channels”. In addition, the “cytosolic Cl- influx” value in test [2] is recorded as “Cl^− influx”. Moreover, in test [3], the “generation of ROS” value is given as “induces generation of ROS”. In addition, in the test with TNBC cells, the “extracellular ATP levels in supernatants” value was “immediate increase in extracellular ATP levels”.
